In US4596810A, “Emulsions of perfluoro octahydro quinolizines useful as blood substitutes” (The Green Cross Corporation, priority 1984, dated 1986):

What was measured:
[1] = test system: Wister-strain male rats; test: Acute Toxicity Test (intravenous); format: in vivo, rat; settings: 100 ml/kg-body weight, isotonized emulsion (Table 4), observed one week
Procedure: The acute toxicity test on the preparations of the present invention was carried out using the preparations of the present invention shown in Table 4 which had been physiologically isotonized. The test animals used were Wister-strain male rats (weighing 100-120 g).

[2] = Distribution of Perfluoro-compound in Organs (gas chromatography); format: in vivo, Wister-strain male rats; settings: for Residual Rate of perfluorobicyclo compound: 3 Months, 4 g/kg tail vein
Source text: The content of perfluoro-4-methyloctanhydroquinolidine uptake in each organ 1, 2 and 4 weeks and 3 months after the administration are shown in Table 5.

Q: With `FC(F)(F)C(F)(F)C1(F)N2C(F)(F)C(F)(F)C(F)(F)C(F)(F)C2(F)C(F)(F)C(F)(F)C1(F)F` (centres unmarked) [perfluoro-4-ethyloctahydroquinolidine] as the compound, how does the death cases [1] read?
A: no death case

Q: For `FC(F)(F)C1(F)N2C(F)(F)C(F)(F)C(F)(F)C(F)(F)C2(F)C(F)(F)C(F)(F)C1(F)F` (centres unmarked) [perfluoro-4-methyloctahydroquinolidine], which “adverse influence on the liver or spleen organ” value ([2]; 4 g/kg into the tail vein, 3 months) is on record?
A: no evidence of adverse influence on the liver or spleen organ

Q: And the “Residual Rate of perfluorobicyclo compound” value ([2]; Liver)?
A: 0.30%

Q: And the “Residual Rate of perfluorobicyclo compound” value ([2]; Spleen)?
A: 0.09%

Q: What about the death cases [1] of the same compound?
A: no death case
